Measurements: US20020165221A1, “Mediators of hedgehog signaling pathways, compositions and uses related thereto” (priority 2000, published 2002)
Each block holds one compound with its values, some of them ahead of it.

Experiments:
[1] = tested on: Patched pathway / ultraviolet radiation-induced BCC tumors; experiment: Adult BCC mouse skin punch assay (UV-irradiated Ptc heterozygous transgenic mice); type: cell-based
Protocol: Ptc heterozygous transgenic mice were irradiated 3 times weekly for 6 months, during which time many small, and often microscopic, BCC tumors developed. Four-mm diameter skin punch explants, presumably containing BCC structures, were cultured for 6 days in the presence of vehicle, the positive control […]), or 5 μM D. At the end of the experiment, the explants were analyzed by X-gal staining to detect the level of Patched pathway activity, by histology to determine the effect of treatment on the morphology of ultraviolet radiation-induced BCCs, and by quantifying the level of gli-1 mRNA expression to characterize the extent of pathway inhibition.

[2] = tested on: GLI-1 expression in human BCC; experiment: Human BCC explant culture, quantitative in situ hybridization; type: cell-based; conditions: 10 μM D, 3 days, vs vehicle
Protocol: Specimens obtained from surgical procedures (such as Mohs surgery or curettage) were cultured on fresh, living, day 17 embryonic mouse dermis from which all epidermal cells have been removed by digestion using dispase. Since dispase treatment digests basement membrane components, Matrigel, a commercially available basement membrane preparation, was applied between the dermis and BCC. Cultures were assembled on top of a plastic grid and incubated for 3 days (with or without D at a concentration of 10 μM) in a medium suitable for the long-term culture of human skin. After culture, the samples were processed for routine histology and subjected to quantitative in situ hybridization. Briefly, 7μm sections of paraformaldehyde-fixed, paraffin-embedded tissue containing large basal cell islands were cleared, re-hydrated, digested with proteinase K, acetylated and hybridized with [^33P]- labeled RNA probes overnight. After high stringency post-hybridization washes, slides were exposed to a PhosphorImager screen in the dark at room temperature for 4-7 days. After developing, the [^33P]-signal was scanned using a Storm Scanner (Molecular Dynamics). Individual basal cell islands were selected and the signal quantified and expressed in average counts/pixel using ImageQuant 1.0 software.

[3] = tested on: Hedgehog pathway; experiment: Gli-Luc assay (Hedgehog-responsive Luciferase reporter), 10T1/2(s12) cells with OCT-SHH; type: cell-based; conditions: OCT-SHH 0.3 μg/ml
Protocol: Compounds to be tested are dissolved in DMSO to a concentration of 10 MM, and stored at −20° C. To activate the Hedgehog pathway in the assay cells, an octylated (lipid-modified) form of the N-terminal fragment of the Sonic Hedgehog protein (OCT-SHH) is used. This N-terminal SHH fragment is produced bacterially.
Compounds may be tested in the “Gli-Luc” assay below, using the cell line 10T(s12), wherein the cells contain a Hedgehog-responsive reporter construct utilizing Luciferase as the reporter gene. In this way, Hedgehog pathway signaling activity can be measured via the Gli-Luc response.
10t1/2(s12) cells are plated in a 96-well micro-titer plate (MTP) at 20,000 cells/well in full medium [DMEM with 10% FBS]. Then plates are placed in the incubator for incubation overnight (O/N), at 37° C. and 5% CO2. After 24 h, the medium is replaced with Luciferase-assay medium (DMEM with 0.5% FBS). Compounds are thawed and diluted in assay medium at 3:1000 (about 300-fold) resulting in a starting concentration of about 30 μM.
Subsequently, 150 μl of each 30 μM sample is added to the first wells (in triplicate). The MTP samples are then diluted at 3-fold dilutions to a total of seven wells, ultimately resulting in a regiment of seven dilutions in triplicate, for each compound. Next, the protein ligand OCT-SHH is diluted in Luciferase-assay medium and added to each well at a final concentration of 0.3 μg/ml. Plates are then returned to the incubator for further incubation O/N, at 37° C. and 5% CO2. After about 24 h, plates are removed from the incubator and the medium is aspirated/discarded. Wells are washed once with assay buffer [PBS +1 mM Mg^2+and 1 mM Ca^2+]. Then 50 μl of assay buffer is added to each well. The Luciferase assay reagent is prepared as described by the vendor (LucLite kit from Packard), and 50 μl is added to each well. Plates are incubated at room temperature (RT) for about 30 minutes after which the signals are read, again at RT, on a Topcount (Packard).

[4] = tested on: Patched pathway (ptc-lacZ reporter, Shh-induced BCC-like structures); experiment: Embryonic mouse skin punch assay: prolonged exposure to D; type: cell-based; conditions: Shh-treated skin punches, 6 days
From the text: A novel cell culture assay was established to determine the effects of D on activation of the Patched pathway in skin. In this system, activation of the Patched pathway results in increased expression of the ptc gene.
To monitor the activity of the Patched pathway in embryonic skin, we cultured pieces of skin from transgenic Patched pathway reporter mice. These mice were genetically engineered to harbor a foreign gene (lacZ). The lacZ gene encodes a bacterial beta-galactosidase. The gene was inserted in the ptc locus but allowed for normal ptc function. Ptc activation in response to Shh-induced Patched pathway activation can then be monitored by the production of the lacZ gene product, beta-galactosidase, which is detectable by the enzymatic conversion of the substrate X-gal into a blue-colored reaction product.
Day 17.5 embryonic skin was explanted as 2 mm circular punches from these transgenic reporter mice and cultured for 5 to 7 days in the presence of Shh protein (FIG. 34). […] To test the effect of D, skin punches were cultured for 6 days in the presence of both Shh protein and D (FIG. 35).

[5] = tested on: Patched pathway (X-gal, gli-1 mRNA, BCC-like structures); experiment: Embryonic mouse skin punch assay: short-term treatment of pre-existing BCC-like structures; type: cell-based
Protocol: Day 17.5 embryonic skin punches from transgenic Patched pathway reporter mice were cultured in the presence of Shh protein for 7 days. The Shh protein was removed at the end of the 7 days. The skin punches were then exposed to vehicle or 1 or 5 μM D for 5 hours on days 7 and 9. After each exposure to vehicle or D, the vehicle or D was washed off and the skin punches were cultured again in the presence of Shh protein. Cultures were analyzed by X-gal staining after 10 days in vitro to assess the activity of the Patched pathway.

[6] = tested on: Patched pathway (ptc-lacZ reporter); experiment: Embryonic mouse skin punch assay: short-term pretreatment with D; type: cell-based; conditions: pretreated with D at 10, 20 and 50 μM for 5 hours, then Shh 6 days
Protocol: Transgenic mouse-derived skin punches were treated with vehicle or D for 5 hours in the absence of Shh. After the pretreatment, the vehicle or D was removed. The skin punches were washed twice and then cultured in the presence of Shh for 6 days. At the end of the experiment, the skin punches were fixed and stained with X-gal to determine Patched pathway activity.

[7] = tested on: Shh-induced BCC-like structures; experiment: Embryonic mouse skin punch assay: long-term treatment of pre-existing BCC-like structures; type: cell-based
Protocol: Day 17.5 embryonic skin punches from transgenic Patched pathway reporter mice were cultured in the presence of Shh protein for 7 days to allow for the development of BCC-like structures. The Shh protein was removed at the end of the 7 days. The cultures were then exposed to Shh protein plus either vehicle or D for 3 days. The cultures were analyzed histologically after 10 days to assess the formation of BCC-like structures that are indicative of activation of the Patched pathway.
One possible mechanism for D-induced regression of BCC-like structures may be apoptosis of the activated cells. To investigate this possibility, parallel explants were exposed to 5 μM D for 2 days and were then stained by the terminal deoxynucleotidyltransferase mediated d-UTP nick end-labeling (TUNEL) method, which is used to detect apoptotic nuclei.

[8] = tested on: Ptc-null cells (gli-1 mRNA, Patched pathway); experiment: Ptc-null assay: gli-1 mRNA by RT-PCR and quantitative real-time PCR; type: cell-based, mouse; conditions: 3 days; for expression of gli-1 mRNA (RT-PCR, agarose gel): vs vehicle
Protocol: Ptc-null cells were cultured for 3 days in the presence of vehicle; jervine, a known Patched pathway antagonist (i) used here as a positive control; or 1 μM of compound D. Total ribonucleic acid (RNA) was isolated from the cells and used for reverse transcriptase-polymerase chain reaction (RT-PCR). […] The gli-1 and actin mRNA samples were then loaded on 1.5% agarose gel and were detected by staining with ethidium bromide. The same samples were analyzed by the quantitative real-time polymerase chain reaction method to quantify the levels of gli-1 MRNA.

[9] = short-term treatment, 5 hours on days 7 and 9

Structure (SMILES): COc1cccc(CN(C(=O)CC(C)(C)C)C2CC(C(=O)N3CCNCC3)N(Cc3ccc4c(c3)OCO4)C2)c1 (stereo not drawn) [Compound D]
number and size of established BCC structures (X-gal staining) ([1]; 5 μM D, 6 days, vs vehicle): decreased
level of gli-1 mRNA ([1]; D 1 and 5 μM, vs vehicle): significantly inhibited
regression of ultraviolet radiation-induced BCC tumors (histology) ([1]; D, 6 days, vs vehicle): induced the regression
levels of housekeeping GAPDH (non-specific cytotoxicity) ([1]; treated vs vehicle): no significant difference
level of GLI-1 expression (quantitative in situ hybridization) [2]: greatly reduced
IC50 [3]: < 1000 nM
X-gal staining ([4]; 0.2 μM D, vs Shh alone): decreased
Patched pathway activity (lacZ reporter enzyme activity) ([4]; 0.01 to 1 μM D): dose-dependent decrease
formation of BCC-like structures ([4]; histology): completely blocked
integrity of normal skin cells ([4]; histology): without affecting the integrity of normal skin cells
regression of existing Shh-induced BCC-like structures ([5]; 1 and 5 μM D for 5 hours on days 7 and 9): caused the regression
amount of X-gal staining ([5]; 1 or 5 μM D for 5 hours on days 7 and 9): reduced
GAPDH mRNA levels (general cytotoxicity) [5, 9]: relatively constant
gli-1 transcription (gli-1 mRNA levels) [5, 9]: completely downregulated
inhibition of Shh protein-induced upregulation of the Patched pathway (X-gal staining) [6]: complete inhibition
number of apoptotic nuclei within BCC-like structures (TUNEL) ([7]; 5 μM D, 2 days, vs vehicle): significantly higher
general cytotoxic effects on skin cells (histology) ([7]; D 1 or 5 μM, 3 days): did not appear to have general cytotoxic effects
size and number of Shh-induced BCC-like structures ([7]; pre-existing structures, D 1 or 5 μM, 3 days, vs vehicle): significantly reduced
gli-1 mRNA levels (quantitative real-time PCR) ([8]; 1 μM D): downregulated
expression of gli-1 mRNA (RT-PCR, agarose gel) ([8]; 1 μM D): significantly decreased

Structure (SMILES): CC(C)CC(=O)N(Cc1ccccc1OC(F)F)C1CC(C(=O)N2CCNCC2)N(Cc2ccc3c(c2)OCO3)C1 (stereo not drawn) [W″]
IC50 [3]: < 10000 nM

Structure (SMILES): COc1cccc(CN(C(=O)CC(C)C)C2CC(C(=O)N3CCNCC3)N(Cc3ccc(C)s3)C2)c1 (stereo not drawn) [X′]
IC50 [3]: < 100 nM

Structure (SMILES): CC(C)CC(=O)N(Cc1cccc(SC(F)(F)F)c1)C1CC(C(=O)N2CCNCC2)N(Cc2ccc3c(c2)OCO3)C1 (stereo not drawn) [X″]
IC50 [3]: < 10000 nM

Structure (SMILES): COc1cccc(CN(C(=O)CC(C)(C)C)C2CC(C(=O)N3CCCNCC3)N(Cc3ccc4c(c3)OCO4)C2)c1 (stereo not drawn) [Z]
IC50 [3]: < 1000 nM

Structure (SMILES): COc1cccc(CN(C(=O)CC(C)(C)C)C2CC(C(=O)N3CCNCC3)N(Cc3ccc(SC)s3)C2)c1 (stereo not drawn) [Z′]
IC50 [3]: < 1000 nM

Structure (SMILES): CC1=C2C(=O)[C@H]3[C@@H](CC=C4C[C@@H](O)CC[C@@]43C)[C@@H]2CC[C@]12O[C@@H]1C[C@H](C)CN[C@H]1[C@H]2C [jervine, reference compound]
number and size of BCC structures (X-gal staining) ([1]; jervine positive control, 6 days, vs vehicle): greatly decreased
gli-1 mRNA levels (quantitative real-time PCR) ([8]; 5 μM jervine): downregulated
expression of gli-1 mRNA (RT-PCR, agarose gel) ([8]; 5 μM jervine): significantly decreased

More lines, now with the values ahead:

IC50 [3]: < 1000 nM
Structure (SMILES): Cc1ccccc1CN(C(=O)CC(C)C)C1CC(C(=O)N2CCNCC2)N(Cc2ccc3c(c2)OCO3)C1 (stereo not drawn) [V″]

IC50 [3]: < 1000 nM
Structure (SMILES): COc1cccc(CN(C(=O)C2CC2)C2CC(C(=O)N3CCNCC3)N(Cc3ccc(F)cc3)C2)c1 (stereo not drawn) [W]

IC50 [3]: < 1000 nM
Structure (SMILES): COc1cccc(CN(C(=O)C2CCCC2)C2CC(C(=O)N3CCNCC3)N(Cc3ccc4c(c3)OCCO4)C2)c1 (stereo not drawn) [W′]

IC50 [3]: < 10000 nM
Structure (SMILES): COc1cccc(CN(C(=O)CC(C)(C)C)C2CC(C(=O)N3CCNCC3)N(Cc3ccc(F)cc3)C2)c1 (stereo not drawn) [X]

IC50 [3]: < 10000 nM
Structure (SMILES): CC(C)(C)CC(=O)N(Cc1ccccc1)C1CC(C(=O)NCCN)N(CC2CCCCC2)C1 (stereo not drawn) [Y]

IC50 [3]: < 1000 nM
Structure (SMILES): COc1cccc(CN(C(=O)CC(C)(C)C)C2CC(C(=O)N3CCNCC3)N(Cc3cc4ccsc4s3)C2)c1 (stereo not drawn) [Y′]

IC50 [3]: < 10000 nM
Structure (SMILES): CC(C)CC(=O)N(Cc1cccc(OCc2ccccc2)c1)C1CC(C(=O)N2CCNCC2)N(Cc2ccc3c(c2)OCO3)C1 (stereo not drawn) [Y″]

IC50 [3]: < 1000 nM
Structure (SMILES): COc1cccc(CN(C(=O)CC(C)(C)C)[C@H]2C[C@@H](C(=O)N3CCN[C@@H](C)C3)N(Cc3ccc4c(c3)OCO4)C2)c1 [Z″]
